From US11759462B2, “Spirocyclic compounds as tryptophan hydroxylase inhibitors” (priority 2013, dated 2023)

Target: T1, Recombinant human TPH1 (MBP tagged) (Homo sapiens, UniProt P17752)
T1 construct: cloning full length human TPH1 cDNA in to a bacterial pMAL-c5E expression vector; made in house; host or cells: E. coli BL21 (DE3)
T1 sequence (P17752 1-444): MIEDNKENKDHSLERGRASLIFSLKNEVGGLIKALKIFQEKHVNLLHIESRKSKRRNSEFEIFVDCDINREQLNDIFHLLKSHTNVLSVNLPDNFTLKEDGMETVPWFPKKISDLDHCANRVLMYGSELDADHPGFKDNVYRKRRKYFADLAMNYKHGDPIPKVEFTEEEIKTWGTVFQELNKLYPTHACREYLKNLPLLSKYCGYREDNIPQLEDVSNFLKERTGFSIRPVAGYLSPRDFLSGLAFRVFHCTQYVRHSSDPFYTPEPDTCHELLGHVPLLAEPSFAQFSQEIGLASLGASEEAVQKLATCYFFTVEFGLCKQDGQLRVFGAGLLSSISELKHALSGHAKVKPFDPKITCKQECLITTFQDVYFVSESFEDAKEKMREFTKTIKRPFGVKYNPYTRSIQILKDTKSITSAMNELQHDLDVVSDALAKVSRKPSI
Assay: TPH1 in vitro inhibition assay (kinetic fluorescence)
Type: biochemical
Details: read-out: TPH1 Range (TPH1 inhibition IC50)
Summary of the method: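 Final mix: 15 nM MBP-TPH1, 30 μM Trp, 36 μM 6-methyltetrahydropterin, 25 μM ferrous ammonium sulfate, 50 mM MES pH 7.1, 1% DMSO, room temperature.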

IC50 [nM] | SMILES
< 50 | CCOc1ccc(-c2ccc([C@@H](Oc3cc(N4CCC5(CC4)CN[C@H](C(=O)O)C5)nc(N)n3)C(F)(F)F)c(-n3ccc(C)n3)c2)cc1 [Example 1q, (S)-8-(2-amino-6-((R)-1-(4′-ethoxy-3-(3-methyl-1H-pyrazol-1-yl)-[1,1′-biphenyl]-4-yl)-2,2,2-trifluoroethoxy)pyrimidin-4-yl)-2,8-diazaspiro[4.5]decane-3-carboxylic acid]
< 50 | COc1ncc(-c2ccc([C@@H](Oc3cc(N4CCC5(CC4)CN[C@H](C(=O)O)C5)nc(N)n3)C(F)(F)F)c(-n3ccc(C)n3)c2)cn1 [Example 1r, (S)-8-(2-amino-6-((R)-2,2,2-trifluoro-1-(4-(2-methoxypyrimidin-5-yl)-2-(3-methyl-1H-pyrazol-1-yl)phenyl)ethoxy)pyrimidin-4-yl)-2,8-diazaspiro[4.5]decane-3-carboxylic acid]
< 50 | COc1ccc(-c2ccc([C@@H](Oc3cc(N4CCC5(CC4)CN[C@H](C(=O)O)C5)nc(N)n3)C(F)(F)F)c(-n3ccc(C)n3)c2)cn1 [Example 1s, (S)-8-(2-amino-6-((R)-2,2,2-trifluoro-1-(4-(6-methoxypyridin-3-yl)-2-(3-methyl-1H-pyrazol-1-yl)phenyl)ethoxy)pyrimidin-4-yl)-2,8-diazaspiro[4.5]decane-3-carboxylic acid]
< 50 | Cc1ccn(-c2cc(-c3ccccc3)ccc2[C@@H](Oc2cc(N3CCC4(CC3)CN[C@H](C(=O)O)C4)nc(N)n2)C(F)(F)F)n1 [Example 1u, (S)-8-(2-amino-6-((R)-2,2,2-trifluoro-1-(3-(3-methyl-H-pyrazol-1-yl)-[1,1′-biphenyl]-4-yl)ethoxy)pyrimidin-4-yl)-2,8-diazaspiro[4.5]decane-3-carboxylic acid]
< 50 | Cc1ccn(-c2cc(-c3cccc(C#N)c3)ccc2[C@@H](Oc2cc(N3CCC4(CC3)CN[C@H](C(=O)O)C4)nc(N)n2)C(F)(F)F)n1 [Example 1w, (S)-8-(2-amino-6-((R)-1-(3′-cyano-3-(3-methyl-1H-pyrazol-1-yl)-[1,1′-biphenyl]-4-yl)-2,2,2-trifluoroethoxy)pyrimidin-4-yl)-2,8-diazaspiro[4.5]decane-3-carboxylic acid]
< 50 | CC(=O)NCc1ccc(-c2ccc([C@@H](Oc3cc(N4CCC5(CC4)CN[C@H](C(=O)O)C5)nc(N)n3)C(F)(F)F)c(-n3ccc(C)n3)c2)cc1 [Example 1x, (S)-8-(6-((R)-1-(4′-(acetamidomethyl)-3-(3-methyl-1H-pyrazol-1-yl)-[1,1′-biphenyl]-4-yl)-2,2,2-trifluoroethoxy)-2-aminopyrimidin-4-yl)-2,8-diazaspiro[4.5]decane-3-carboxylic acid]
< 50 | Cc1ccn(-c2cc(-c3ccc4cccnc4c3)ccc2[C@@H](Oc2cc(N3CCC4(CC3)CN[C@H](C(=O)O)C4)nc(N)n2)C(F)(F)F)n1 [Example 1z, (S)-8-(2-amino-6-((R)-2,2,2-trifluoro-1-(2-(3-methyl-1H-pyrazol-1-yl)-4-(quinolin-7-yl)phenyl)ethoxy)pyrimidin-4-yl)-2,8-diazaspiro[4.5]decane-3-carboxylic acid]
50 to 300 | COc1ccc([C@@H](Oc2cc(N3CCC4(CC3)CN[C@H](C(=O)O)C4)nc(N)n2)C(F)(F)F)c(-n2ccc(C)n2)c1 [Example 10l, (S)-8-(2-amino-6-((R)-2,2,2-trifluoro-1-(4-methoxy-2-(3-methyl-1H-pyrazol-1-yl)phenyl)ethoxy)pyrimidin-4-yl)-2,8-diazaspiro[4.5]decane-3-carboxylic acid]
< 50 | Cc1ccn(-c2cc(Br)ccc2[C@@H](Oc2cc(N3CCC4(CC3)CN[C@H](C(=O)O)C4)nc(N)n2)C(F)(F)F)n1 [Example 10m, (S)-8-(2-amino-6-((R)-1-(4-bromo-2-(3-methyl-1H-pyrazol-1-yl)phenyl)-2,2,2-trifluoroethoxy)pyrimidin-4-yl)-2,8-diazaspiro[4.5]decane-3-carboxylic acid]
< 50 | Cc1ccn(-c2ccc(Br)cc2[C@@H](Oc2cc(N3CCC4(CC3)CN[C@H](C(=O)O)C4)nc(N)n2)C(F)(F)F)n1 [Example 10n, (S)-8-(2-amino-6-((R)-1-(5-bromo-2-(3-methyl-1H-pyrazol-1-yl)phenyl)-2,2,2-trifluoroethoxy)pyrimidin-4-yl)-2,8-diazaspiro[4.5]decane-3-carboxylic acid]
50 to 300 | CCc1ccc([C@@H](Oc2cc(N3CCC4(CC3)CN[C@H](C(=O)O)C4)nc(N)n2)C(F)(F)F)c(-n2ccc(C)n2)c1 [Example 12a, (S)-8-(2-amino-6-((R)-1-(4-ethyl-2-(3-methyl-H-pyrazol-1-yl)phenyl)-2,2,2-trifluoroethoxy)pyrimidin-4-yl)-2,8-diazaspiro[4.5]decane-3-carboxylic acid]
< 50 | Cc1ccn(-c2cc(C#N)ccc2[C@@H](Oc2cc(N3CCC4(CC3)CN[C@H](C(=O)O)C4)nc(N)n2)C(F)(F)F)n1 [Example 14, (S)-8-(2-amino-6-((R)-1-(4-cyano-2-(3-methyl-H-pyrazol-1-yl)phenyl)-2,2,2-trifluoroethoxy)pyrimidin-4-yl)-2,8-diazaspiro[4.5]decane-3-carboxylic acid]

Second part, the molecule before the results:

SMILES | IC50 [nM]
Cc1ccn(-c2cc(C3=CCOCC3)ccc2[C@@H](Oc2cc(N3CCC4(CC3)CN[C@H](C(=O)O)C4)nc(N)n2)C(F)(F)F)n1 [Example 1j, (S)-8-(2-amino-6-((R)-1-(4-(3,6-dihydro-2H-pyran-4-yl)-2-(3-methyl-1H-pyrazol-1-yl)phenyl)-2,2,2-trifluoroethoxy)pyrimidin-4-yl)-2,8-diazaspiro[4.5]decane-3-carboxylic acid] | 50 to 300
CC(=O)N1CC=C(c2ccc([C@@H](Oc3cc(N4CCC5(CC4)CN[C@H](C(=O)O)C5)nc(N)n3)C(F)(F)F)c(-n3ccc(C)n3)c2)CC1 [Example 1k, (S)-8-(6-((R)-1-(4-(1-acetyl-1,2,3,6-tetrahydropyridin-4-yl)-2-(3-methyl-1H-pyrazol-1-yl)phenyl)-2,2,2-trifluoroethoxy)-2-aminopyrimidin-4-yl)-2,8-diazaspiro[4.5]decane-3-carboxylic acid] | < 50
Nc1nc(O[C@H](c2ccc(Cl)cc2-n2ccc(C(F)(F)F)n2)C(F)(F)F)cc(N2CCC3(CC2)CN[C@H](C(=O)O)C3)n1 [Example 10p, (S)-8-(2-amino-6-((R)-1-(4-chloro-2-(3-(trifluoromethyl)-1H-pyrazol-1-yl)phenyl)-2,2,2-trifluoroethoxy)pyrimidin-4-yl)-2,8-diazaspiro[4.5]decane-3-carboxylic acid] | 50 to 300
CC(C)(C)c1ccn(-c2cc(Cl)ccc2[C@@H](Oc2cc(N3CCC4(CC3)CN[C@H](C(=O)O)C4)nc(N)n2)C(F)(F)F)n1 [Example 10pa, (S)-8-(2-amino-6-((R)-1-(2-(3-(tert-butyl)-1H-pyrazol-1-yl)-4-chlorophenyl)-2,2,2-trifluoroethoxy)pyrimidin-4-yl)-2,8-diazaspiro[4.5]decane-3-carboxylic acid] | 50 to 300
CC(C)c1ccn(-c2cc(Cl)ccc2[C@@H](Oc2cc(N3CCC4(CC3)CN[C@H](C(=O)O)C4)nc(N)n2)C(F)(F)F)n1 [Example 10q, (S)-8-(2-amino-6-((R)-1-(4-chloro-2-(3-isopropyl-1H-pyrazol-1-yl)phenyl)-2,2,2-trifluoroethoxy)pyrimidin-4-yl)-2,8-diazaspiro[4.5]decane-3-carboxylic acid] | < 50
Nc1nc(O[C@H](c2ccc(Cl)cc2-n2ccc(C3CC3)n2)C(F)(F)F)cc(N2CCC3(CC2)CN[C@H](C(=O)O)C3)n1 [Example 10r, (S)-8-(2-amino-6-((R)-1-(4-chloro-2-(3-cyclopropyl-1H-pyrazol-1-yl)phenyl)-2,2,2-trifluoroethoxy)pyrimidin-4-yl)-2,8-diazaspiro[4.5]decane-3-carboxylic acid] | < 50
Cc1ccn(-c2cc(C(O)CO)ccc2[C@@H](Oc2cc(N3CCC4(CC3)CN[C@H](C(=O)O)C4)nc(N)n2)C(F)(F)F)n1 (stereo partly drawn) [Example 13, (3S)-8-(2-amino-6-((1R)-1-(4-(1,2-dihydroxyethyl)-2-(3-methyl-1H-pyrazol-1-yl)phenyl)-2,2,2-trifluoroethoxy)pyrimidin-4-yl)-2,8-diazaspiro[4.5]decane-3-carboxylic acid] | 50 to 300
Cc1ccn(-c2cc(C(N)=O)ccc2[C@@H](Oc2cc(N3CCC4(CC3)CN[C@H](C(=O)O)C4)nc(N)n2)C(F)(F)F)n1 [Example 15, (S)-8-(2-amino-6-((R)-1-(4-carbamoyl-2-(3-methyl-H-pyrazol-1-yl)phenyl)-2,2,2-trifluoroethoxy)pyrimidin-4-yl)-2,8-diazaspiro[4.5]decane-3-carboxylic acid] | 50 to 300
CCOC(=O)c1ccc([C@@H](Oc2cc(N3CCC4(CC3)CN[C@H](C(=O)O)C4)nc(N)n2)C(F)(F)F)c(-n2ccc(C)n2)c1 [Example 17, (S)-8-(2-amino-6-((R)-1-(4-(ethoxycarbonyl)-2-(3-methyl-H-pyrazol-1-yl)phenyl)-2,2,2-trifluoroethoxy)pyrimidin-4-yl)-2,8-diazaspiro[4.5]decane-3-carboxylic acid] | < 50
